Data taken from patent publication US20090186868A1, “Taxane Compound Having Azetidine Ring Structure” (Daiichi Sankyo Company Limited, priority 2005, published 2009).
In brackets after ≈: the same amount, converted by molar mass. Like-named read-outs stand apart in the source and are kept apart here.

Tests used:
[1] = Solubility in first and second solution for disintegration test (Japanese Pharmacopoeia); type: physicochemical; details: for solubility: thermodynamic from solid
Experimental: Solubility of each compound was determined in the first solution for disintegration test according to Japanese Pharmacopoeia (henceforth referred to as the first solution, solution obtained by adding 7 mL of hydrochloric acid and water to 2.00 g of sodium chloride to dissolve sodium chloride and fill up the solution to 1000 mL, pH 1.2) and the second solution for disintegration test according to Japanese Pharmacopoeia (henceforth referred to as the second solution, solution obtained by adding 118 mL of 0.2 mol/L solution of sodium hydroxide to 6.80 g of potassium dihydrogenphosphate, adding water to the mixture to dissolve potassium dihydrogenphosphate and filling up the solution to 1000 mL, pH 6.8).
Each test compound was dissolved in 100% dimethyl sulfoxide (DMSO) at a concentration of 10 mM, and 50 μL of the solution was lyophilized. The lyophilized test compound was added with 250 μL of the first solution or second solution, and the mixture was stored at room temperature for 12 hours or longer under light shielding, and filtered (0.7 μm). The filtrate was taken in a volume of 90 μL, and added with 50% DMSO (90 μL) to obtain a two-fold diluted solubility sample. The two-fold dilution solubility sample was taken in a volume of 20 μL, and added with 50% DMSO (180 μL) to obtain a […] diluted solubility sample. Solubility of each test sample was determined by quantifying the test compound in the resulting diluted solubility test samples using high-performance liquid chromatography.

B16 melanoma BL6 = assay: Antitumor effect in mice subcutaneously transplanted with B16 melanoma BL6; type: in vivo, Mice (C57BL/6); details: for Therapeutic index: MTD/MED; for Effective dose range: range from MED to MTD, antitumor effect of 58% or more considered effective
Source text: (§1) Mice (C57BL/6, Charles River Japan) were subcutaneously transplanted with B16 melanoma BL6 (Cancer Res., Poste, G., Fidler, I. J. et al., 1980, 40:1636; Bioorg. Med. Chem. Lett., Takeda, Y. et al., 2003, 13:185-190), or M5076 (obtained from Japanese Foundation for Cancer Research), which is a histiocytoma expressing P-gp. Four days after the transplantation in the case of B16 melanoma BL6, or 8 to 10 days after the transplantation in the case of M5076, each test compound suspended in a 0.5% aqueous solution of carboxymethylcellulose sodium, or dissolved in EtOH:Tween 80:5% glucose=5:5:90 (v/v %) was orally (po) or intravenously (iv) administered to the mice. Ten days after the administration in the case of B16 melanoma BL6, or 8 to 10 days after the administration in the case of M5076, the mice were dissected, and tumor weights were measured. The antitumor effect was calculated in accordance with the following equation.
(§2) [1−(Average tumor weight of compound administration group/average tumor weight of solvent administration group)]×100
(§3) An antitumor effect of 58% or more was considered effective (Int. J. Cancer, 1989, 43:637-44), and the maximum tolerance dose (MTD, maximum dose not causing death, mg/kg) and minimum effective dose (MED, mg/kg) showing effectiveness were obtained, respectively. The therapeutic index was calculated in accordance with the equation: MTD/MED.
(§4) ND means that the test was not performed. The effective dose range means the range of from MED to MTD.

[2] = tested on: M5076 (histiocytoma expressing P-gp); assay: Antitumor effect in mice subcutaneously transplanted with M5076; type: in vivo, Mice (C57BL/6); details: M5076, iv; for Therapeutic index: MTD/MED; for Effective dose range: range from MED to MTD, antitumor effect of 58% or more considered effective
Source text: as §1, §2, §3, §4

[3] = first solution for disintegration test, pH 1.2, room temperature, 12 hours or longer
[4] = second solution for disintegration test, pH 6.8, room temperature, 12 hours or longer
[5] = aqueous buffer, second solution for disintegration test, pH 6.8, room temperature, 12 hours or longer, read-out: Solubility (μg/mL) pH 6.8
[6] = simulated gastric fluid, first solution for disintegration test, pH 1.2, room temperature, 12 hours or longer, read-out: Solubility (μg/mL) pH 1.2

Row | SMILES | Solubility (μg/mL) pH 1.2 [1, 3] [μg/mL] | Solubility (μg/mL) pH 6.8 [1, 4] [μg/mL] | Therapeutic index (B16 melanoma BL6; B16 Melanoma BL6, iv) | Effective dose range (B16 melanoma BL6; B16 Melanoma BL6, iv) [mg/kg] | Therapeutic index [2] | Effective dose range [2] [mg/kg] | Therapeutic index (B16 melanoma BL6; B16 Melanoma BL6, po) | Effective dose range (B16 melanoma BL6; B16 Melanoma BL6, po) [mg/kg] | solubility [1, 5] [µg/mL] | solubility [1, 6] [µg/mL] | solubility ([1]; pH 1.2, simulated gastric fluid) [µg/mL] | solubility ([1]; pH 6.8, aqueous buffer) [µg/mL]
1 | CC(=O)OC12COC1CCC1(C)C3OC(CN4CCC4)OC3C3=C(C)C(OC(=O)C(O)C(CF)NC(=O)OC(C)(C)C)CC(O)(C(OC(=O)c4ccccc4)C12)C3(C)C [Example 34, (1S,2S,3R,4S,5R,8R,9S,10R,13S)-4-(Acetoxy)-9,10-[(1S)-2-(azetidino)ethylidenedioxy]-2-(benzoyloxy)-5,20-epoxy-1-hydroxytax-11-en-13-yl (2R,3R)-3-(tert-butoxycarbonylamino)-4-fluoro-2-hydroxybutyrate] | 830 | 310 | 4.2 | 10.1 to 42.0 |  |  |  |  |  |  |  | 
2 | CC(=O)O[C@@]12CO[C@@H]1CC[C@@]1(C)[C@@H]3O[C@H](CN4CCC4)O[C@@H]3C3=C(C)[C@@H](OC(=O)[C@H](O)[C@@H](NC(=O)OC(C)(C)C)C(F)F)C[C@@](O)([C@@H](OC(=O)c4ccccc4)[C@@H]12)C3(C)C [Example 31, (1S,2S,3R,4S,5R,8R,9S,10R,13S)-4-(Acetoxy)-9,10-[(1S)-2-(azetidino)ethylidenedioxy]-2-(benzoyloxy)-5,20-epoxy-1-hydroxytax-1′-en-13-yl (2R,3R)-3-(tert-butoxycarbonylamino)-4,4-difluoro-2-hydroxybutyrate] | 1000 | 160 | 2.9 | 3.43 to 10.0 | 1.0 | 10.0 | 2.0 | 8.82 to 18.0 |  |  |  | 
3 | CC(=O)O[C@@]12CO[C@@H]1CC[C@@]1(C)[C@@H]3O[C@H](CN4CCC4)O[C@@H]3C3=C(C)[C@@H](OC(=O)[C@H](O)[C@@H](NC(=O)OC(C)(C)C)c4ncco4)C[C@@](O)([C@@H](OC(=O)c4ccccc4)[C@@H]12)C3(C)C [Example 41, (1S,2S,3R,4S,5R,8R,9S,10R,13S)-4-(Acetoxy)-9,10-[(1S)-2-(azetidino)ethylidenedioxy]-2-(benzoyloxy)-5,20-epoxy-1-hydroxytax-11-en-13-yl (2R,3R)-3-(tert-butoxycarbonylamino)-2-hydroxy-3-(2-oxazolyl)propionate] | 910 | 370 | 4.2 | 5.29 to 22.0 | 1.4 | 17.5 to 25.0 | 2.9 | 8.58 to 25.0 |  |  |  | 
4 | CC(=O)O[C@@]12CO[C@@H]1CC[C@@]1(C)[C@@H]3O[C@H](CN4CC(C)(O)C4)O[C@@H]3C3=C(C)[C@@H](OC(=O)[C@H](O)[C@@H](NC(=O)OC(C)(C)C)c4ncccc4F)C[C@@](O)([C@@H](OC(=O)c4ccccc4)[C@@H]12)C3(C)C [Example 12, (1S,2S,3R,4S,5R,8R,9S,10R,13S)-4-(Acetoxy)-2-(benzoyloxy)-5,20-epoxy-1-hydroxy-9,10-[(1S)-2-(3-hydroxy-3-methylazetidino)ethylidenedioxy]tax-11-en-13-yl (2R,3S)-3-(tert-butoxycarbonylamino)-3-(3-fluoro-2-pyridyl)-2-hydroxypropionate] |  |  |  |  |  |  | 4.1 |  | 92 (≈ 99.6 µM) | 1100 (≈ 1190 µM) |  | 
5 | CC(=O)O[C@@]12CO[C@@H]1CC[C@@]1(C)[C@@H]3O[C@H](CN4CC(C(=O)N(C)C)C4)O[C@@H]3C3=C(C)[C@@H](OC(=O)[C@H](O)[C@@H](NC(=O)OC(C)(C)C)c4ccccn4)C[C@@](O)([C@@H](OC(=O)c4ccccc4)[C@@H]12)C3(C)C [Example 9, (1S,2S,3R,4S,5R,8R,9S,10R,13S)-4-(Acetoxy)-2-(benzoyloxy)-9,10-{(1S)-[2-(3-dimethylcarbamoyl)azetidino]ethylidenedioxy}-5,20-epoxy-1-hydroxytax-11-en-13-yl (2R,3S)-3-(tert-butoxycarbonylamino)-2-hydroxy-3-(2-pyridyl)propionate] |  |  |  |  |  |  | 6.0 |  | 130 (≈ 137 µM) | 1400 (≈ 1480 µM) |  | 
6 | CC(=O)O[C@@]12CO[C@@H]1CC[C@@]1(C)[C@@H]3O[C@H](CN4CCC4)O[C@@H]3C3=C(C)[C@@H](OC(=O)[C@H](O)[C@@H](NC(=O)OC(C)(C)C)c4nccs4)C[C@@](O)([C@@H](OC(=O)c4ccccc4)[C@@H]12)C3(C)C [Example 40, (1S,2S,3R,4S,5R,8R,9S,10R,13S)-4-(Acetoxy)-9,10-[(1S)-2-(azetidino)ethylidenedioxy]-2-(benzoyloxy)-5,20-epoxy-1-hydroxytax-11-en-13-yl (2R,3R)-3-(tert-butoxycarbonylamino)-2-hydroxy-3-(2-thiazolyl)propionate] |  |  | 4.2 |  |  |  |  |  | 150 (≈ 170 µM) | 1000 (≈ 1130 µM) |  | 
7 | CC(=O)O[C@@]12CO[C@@H]1CC[C@@]1(C)[C@@H]3O[C@H](CN4CC[C@H]4C(=O)N(C)C)O[C@@H]3C3=C(C)[C@@H](OC(=O)[C@H](O)[C@@H](NC(=O)OC(C)(C)C)c4ccccn4)C[C@@](O)([C@@H](OC(=O)c4ccccc4)[C@@H]12)C3(C)C [Example 23, (1S,2S,3R,4S,5R,8R,9S,10R,13S)-4-(Acetoxy)-2-(benzoyloxy)-9,10-{(1S)-2-[(2S)-2-(dimethylcarbamoyl)azetidino]ethylidenedioxy}-5,20-epoxy-1-hydroxytax-11-en-13-yl (2R,3S)-3-(tert-butoxycarbonylamino)-2-hydroxy-3-(2-pyridyl)propionate] |  |  |  |  |  |  | 2.9 |  |  |  | 1400 (≈ 1480 µM) | 360 (≈ 380 µM)
8 | CC(=O)O[C@@]12CO[C@@H]1CC[C@@]1(C)[C@@H]3O[C@H](CN4CC[C@H]4CO)O[C@@H]3C3=C(C)[C@@H](OC(=O)[C@H](O)[C@@H](NC(=O)OC(C)(C)C)c4ccccn4)C[C@@](O)([C@@H](OC(=O)c4ccccc4)[C@@H]12)C3(C)C [Example 21, (1S,2S,3R,4S,5R,8R,9S,10R,13S)-4-(Acetoxy)-2-(benzoyloxy)-5,20-epoxy-1-hydroxy-9,10-{(1S)-2-[(2S)-2-hydroxymethylazetidino]ethylidenedioxy}tax-11-en-13-yl (2R,3S)-3-(tert-butoxycarbonylamino)-2-hydroxy-3-(2-pyridyl)propionate] |  |  |  |  |  |  | 5.9 |  | 150 (≈ 166 µM) | > 1000 |  | 
9 | CC(=O)O[C@@]12CO[C@@H]1CC[C@@]1(C)[C@@H]3O[C@H](CN4CC(S(C)(=O)=O)C4)O[C@@H]3C3=C(C)[C@@H](OC(=O)[C@H](O)[C@@H](NC(=O)OC(C)(C)C)c4ncccc4F)C[C@@](O)([C@@H](OC(=O)c4ccccc4)[C@@H]12)C3(C)C [Example 28, (1S,2S,3R,4S,5R,8R,9S,10R,13S)-4-(Acetoxy)-2-(benzoyloxy)-5,20-epoxy-1-hydroxy-9,10-{(1S)-2-[3-(methanesulfonyl)azetidino]ethylidenedioxy}tax-11-en-13-yl (2R,3S)-3-(tert-butoxycarbonylamino)-3-(3-fluoro-2-pyridyl)-2-hydroxypropionate] |  |  |  |  |  |  | 4.2 |  | 18 (≈ 18.5 µM) | 1300 (≈ 1340 µM) |  | 
